Structures are written as SMILES.

Sequence of GST tagged truncated human mutant G2019S LRRK2 (Q5S007 970-2527 G2019S): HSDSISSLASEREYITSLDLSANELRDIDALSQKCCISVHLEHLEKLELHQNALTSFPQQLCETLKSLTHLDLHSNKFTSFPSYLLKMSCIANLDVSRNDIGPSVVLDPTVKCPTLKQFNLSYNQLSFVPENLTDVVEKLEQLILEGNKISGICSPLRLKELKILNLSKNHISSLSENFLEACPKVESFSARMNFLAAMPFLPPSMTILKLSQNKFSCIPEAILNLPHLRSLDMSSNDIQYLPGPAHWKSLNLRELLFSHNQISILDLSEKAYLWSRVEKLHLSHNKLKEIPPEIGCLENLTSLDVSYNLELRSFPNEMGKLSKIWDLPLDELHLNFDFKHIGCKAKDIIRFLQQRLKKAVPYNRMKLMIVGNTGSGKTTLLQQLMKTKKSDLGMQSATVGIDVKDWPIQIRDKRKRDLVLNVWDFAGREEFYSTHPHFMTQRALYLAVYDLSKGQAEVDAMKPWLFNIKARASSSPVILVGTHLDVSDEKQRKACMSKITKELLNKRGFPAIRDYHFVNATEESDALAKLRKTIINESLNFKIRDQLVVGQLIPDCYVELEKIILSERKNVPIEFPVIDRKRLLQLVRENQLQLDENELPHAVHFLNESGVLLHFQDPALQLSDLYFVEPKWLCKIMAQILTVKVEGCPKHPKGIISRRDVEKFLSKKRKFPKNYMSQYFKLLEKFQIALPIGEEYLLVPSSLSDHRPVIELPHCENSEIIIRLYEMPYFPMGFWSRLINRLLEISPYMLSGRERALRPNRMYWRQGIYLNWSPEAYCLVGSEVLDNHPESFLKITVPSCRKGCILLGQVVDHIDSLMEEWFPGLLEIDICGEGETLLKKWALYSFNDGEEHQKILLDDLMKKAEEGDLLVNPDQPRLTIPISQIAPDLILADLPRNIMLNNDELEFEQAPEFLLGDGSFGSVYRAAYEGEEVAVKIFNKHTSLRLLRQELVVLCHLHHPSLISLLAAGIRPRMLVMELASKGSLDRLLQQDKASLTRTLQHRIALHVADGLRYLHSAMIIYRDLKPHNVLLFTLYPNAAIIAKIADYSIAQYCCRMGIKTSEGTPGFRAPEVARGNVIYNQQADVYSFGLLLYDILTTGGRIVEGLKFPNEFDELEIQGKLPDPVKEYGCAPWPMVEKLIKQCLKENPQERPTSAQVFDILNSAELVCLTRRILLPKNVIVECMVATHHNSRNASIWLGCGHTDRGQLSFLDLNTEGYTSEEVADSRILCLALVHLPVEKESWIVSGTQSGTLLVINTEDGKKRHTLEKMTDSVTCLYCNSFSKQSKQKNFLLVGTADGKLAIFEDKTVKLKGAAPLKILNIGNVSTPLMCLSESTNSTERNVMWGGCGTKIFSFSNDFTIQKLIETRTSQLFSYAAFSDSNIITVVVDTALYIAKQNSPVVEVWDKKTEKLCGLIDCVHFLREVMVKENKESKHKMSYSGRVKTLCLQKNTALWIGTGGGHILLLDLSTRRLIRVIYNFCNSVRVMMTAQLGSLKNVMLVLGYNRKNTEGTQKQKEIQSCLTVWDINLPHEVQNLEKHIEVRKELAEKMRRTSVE

In this assay the target is GST tagged truncated human mutant G2019S LRRK2 (Homo sapiens (Human), UniProt Q5S007, G2019S). Nature of the assay: LRRK2 Km ATP LanthaScreen Assay. Format: biochemical. To be noted: 134 μM ATP (Km ATP), LRRKtide substrate, negative log of mean IC50 (molar). A digest of the protocol:
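Truncated GST-tagged G2019S LRRK2 (1.25 nM enzyme solution) was preincubated with compound for 15 min at rt, then reacted for 90 min with fluorescein-LRRKtide and 134 μM ATP (Km) in Tris pH 8.5/MgCl2 buffer. After an EDTA stop, TR-FRET used a Tb anti-pERM antibody (520/495 nm ratio). IC50 came from a 4-parameter fit and is reported as pIC50, mean of several runs.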
`O=C(Nc1cnn(CCC2CCNCC2)c1)c1csc(-c2cn[nH]c2)n1` [Example 7-32, N-{1-[2-(piperidin-4-yl)ethyl]-1H-pyrazol-4-yl}-2-(1H-pyrazol-4-yl)-1,3-thiazole-4-carboxamide]: the “LRRK2 pIC50” value is recorded as 7.38.

With `O=C(Nc1cn(CC2CC2)nc1C(F)F)c1csc(-c2cn[nH]c2)n1` [Example 7-33, N-[1-(cyclopropylmethyl)-3-(difluoromethyl)-1H-pyrazol-4-yl]-2-(1H-pyrazol-4-yl)-1,3-thiazole-4-carboxamide], the “LRRK2 pIC50” value is listed as 8.13.

As for `CN1CCN(CCCn2cc(NC(=O)c3csc(-c4cn[nH]c4)n3)cn2)CC1` [Example 7-34, N-{1-[3-(4-methylpiperazin-1-yl)propyl]-1H-pyrazol-4-yl}-2-(1H-pyrazol-4-yl)-1,3-thiazole-4-carboxamide], the “LRRK2 pIC50” value came out at 5.95.

As to `N[C@H]1CC[C@](F)(Cn2cc(NC(=O)c3csc(-c4cn[nH]c4)n3)cn2)CC1` [Example 7-35, N-{1-[(cis-4-amino-1-fluorocyclohexyl)methyl]-1H-pyrazol-4-yl}-2-(1H-pyrazol-4-yl)-1,3-thiazole-4-carboxamide], the “LRRK2 pIC50” value is on record as 6.24.

For `NCC1CCC(F)(Cn2cc(NC(=O)c3csc(-c4cn[nH]c4)n3)cn2)CC1` (stereo not shown) [Example 7-36, N-(1-{[4-(aminomethyl)-1-fluorocyclohexyl]methyl}-1H-pyrazol-4-yl)-2-(1H-pyrazol-4-yl)-1,3-thiazole-4-carboxamide], the “LRRK2 pIC50” value is 7.65.

Turning to `N#CC1CCC(Cn2cc(NC(=O)c3csc(-c4cn[nH]c4)n3)cn2)CC1` (stereo not shown) [Example 7-37, N-{1-[(4-cyanocyclohexyl)methyl]-1H-pyrazol-4-yl}-2-(1H-pyrazol-4-yl)-1,3-thiazole-4-carboxamide], the “LRRK2 pIC50” value worked out at 7.72.

Turning to `O=C(Nc1cnn(CC2CC2)c1)c1csc(-c2cn[nH]c2)n1` [Example 7-38, N-[1-(cyclopropylmethyl)-1H-pyrazol-4-yl]-2-(1H-pyrazol-4-yl)-1,3-thiazole-4-carboxamide], the “LRRK2 pIC50” value was 8.02.

On to `COc1nn(CC2CC2(F)F)cc1NC(=O)c1csc(-c2cn[nH]c2)n1` (stereo not shown) [Example 7-39, N-{1-[(2,2-difluorocyclopropyl)methyl]-3-methoxy-1H-pyrazol-4-yl}-2-(1H-pyrazol-4-yl)-1,3-thiazole-4-carboxamide], for which the “LRRK2 pIC50” value came out at 7.74.

As for `CCOCCn1cc(NC(=O)c2csc(-c3cn[nH]c3)n2)c(C(F)F)n1` [Example 7-40, N-[3-(difluoromethyl)-1-(2-ethoxyethyl)-1H-pyrazol-4-yl]-2-(1H-pyrazol-4-yl)-1,3-thiazole-4-carboxamide], the “LRRK2 pIC50” value stood at 6.97.

`CC(C)Cn1cc(NC(=O)c2csc(-c3cn[nH]c3)n2)cn1` [Example 7-41, N-[1-(2-methylpropyl)-1H-pyrazol-4-yl]-2-(1H-pyrazol-4-yl)-1,3-thiazole-4-carboxamide]: the “LRRK2 pIC50” value worked out at 7.46.

Consider `CC1(Cn2cc(NC(=O)c3csc(-c4cn[nH]c4)n3)c(C(F)F)n2)COC1` [Example 7-42, N-{3-(difluoromethyl)-1-[(3-methyloxetan-3-yl)methyl]-1H-pyrazol-4-yl}-2-(1H-pyrazol-4-yl)-1,3-thiazole-4-carboxamide], for which the “LRRK2 pIC50” value amounted to 6.51.

As for `O=C(Nc1cnn(CC2C3CCC2CNC3)c1)c1csc(-c2cn[nH]c2)n1` (stereo not shown) [Example 7-43, N-{1-[(3-azabicyclo[3.2.1]octan-8-yl)methyl]-1H-pyrazol-4-yl}-2-(1H-pyrazol-4-yl)-1,3-thiazole-4-carboxamide], the “LRRK2 pIC50” value is on record as 6.87.

Turning to `Cc1cc(-n2cc(NC(=O)c3csc(-c4cn[nH]c4)n3)cn2)ccn1` [Example 8-1, N-(1-(2-Methylpyridin-4-yl)-1H-pyrazol-4-yl)-2-(1H-pyrazol-4-yl)thiazole-4-carboxamide], the “LRRK2 pIC50” value amounted to 7.90.

For `Cc1cnccc1-n1cc(NC(=O)c2csc(-c3cn[nH]c3)n2)cn1` [Example 8-2, N-[1-(3-methylpyridin-4-yl)-1H-pyrazol-4-yl]-2-(1H-pyrazol-4-yl)-1,3-thiazole-4-carboxamide], the “LRRK2 pIC50” value amounted to 7.74.

Regarding `CC(C)c1cc(-n2cc(NC(=O)c3csc(-c4cn[nH]c4)n3)cn2)ccn1` [Example 8-3, N-{1-[2-(1-methylethyl)pyridin-4-yl]-1H-pyrazol-4-yl}-2-(1H-pyrazol-4-yl)-1,3-thiazole-4-carboxamide], the “LRRK2 pIC50” value stood at 7.89.

Consider `Cc1cc(-n2cc(NC(=O)c3csc(-c4cn[nH]c4)n3)cn2)cc(C)n1` [Example 8-4, N-[1-(2,6-dimethylpyridin-4-yl)-1H-pyrazol-4-yl]-2-(1H-pyrazol-4-yl)-1,3-thiazole-4-carboxamide], for which the “LRRK2 pIC50” value amounted to 7.82.

With `Cn1cc(-c2cccc(C(=O)Nc3cnn(C4CCC4)c3)n2)cn1` [Example 9-1, N-(1-Cyclobutyl-1H-pyrazol-4-yl)-6-(1-methyl-1H-pyrazol-4-yl)picolinamide], the “LRRK2 pIC50” value came to 7.27.

As to `O=C(Nc1cnn(CC2CCC2)c1)c1cccc(-c2cncnc2)n1` [Example 9-2, N-[1-(cyclobutylmethyl)-1H-pyrazol-4-yl]-6-pyrimidin-5-ylpyridine-2-carboxamide], the “LRRK2 pIC50” value is reported as 5.74.

In the case of `O=C(Nc1cnn(C2CCC2)c1)c1csc(-c2cnn3c2CCC3)n1` [Example 9-3, N-(1-cyclobutyl-1H-pyrazol-4-yl)-2-(5,6-dihydro-4H-pyrrolo[1,2-b]pyrazol-3-yl)-1,3-thiazole-4-carboxamide], the “LRRK2 pIC50” value came to 8.01.

For the compound `CCn1cc(-c2nc(C(=O)Nc3cnn(C4CCC4)c3)cs2)cn1` [Example 9-4, N-(1-cyclobutyl-1H-pyrazol-4-yl)-2-(1-ethyl-1H-pyrazol-4-yl)-1,3-thiazole-4-carboxamide], the “LRRK2 pIC50” value was 7.41.

As to `O=C(Nc1cnn(CC2CCC2)c1)c1cccc(-c2ccoc2)n1` [Example 9-5, N-[1-(cyclobutylmethyl)-1H-pyrazol-4-yl]-6-furan-3-ylpyridine-2-carboxamide], the “LRRK2 pIC50” value was determined as 5.79.

As to `O=C(Nc1cnn(CC2CCC2)c1)c1cccc(-c2cnn(Cc3ccncc3)c2)n1` [Example 9-6, N-[1-(cyclobutylmethyl)-1H-pyrazol-4-yl]-6-[1-(pyridin-4-ylmethyl)-1H-pyrazol-4-yl]pyridine-2-carboxamide], the “LRRK2 pIC50” value is given as 6.18.

Turning to `CC1COc2c(-c3cccc(C(=O)Nc4cnn(CC5CCC5)c4)n3)cnn2C1` (stereo not shown) [Example 9-7, N-[1-(cyclobutylmethyl)-1H-pyrazol-4-yl]-6-(6-methyl-6,7-dihydro-5H-pyrazolo[5,1-b][1,3]oxazin-3-yl)pyridine-2-carboxamide], the “LRRK2 pIC50” value came out at 6.87.

`O=C(Nc1cnn(CC2CCC2)c1)c1cccc(-c2cnn(Cc3ccccn3)c2)n1` [Example 9-8, N-[1-(cyclobutylmethyl)-1H-pyrazol-4-yl]-6-[1-(pyridin-2-ylmethyl)-1H-pyrazol-4-yl]pyridine-2-carboxamide]: the “LRRK2 pIC50” value worked out at 6.54.

`Cn1cnc(-c2nc(C(=O)Nc3cnn(C4CCC4)c3)cs2)c1` [Example 9-9, N-(1-cyclobutyl-1H-pyrazol-4-yl)-2-(1-methyl-1H-imidazol-4-yl)-1,3-thiazole-4-carboxamide]: the “LRRK2 pIC50” value was 8.04.

The record behind these values is patent US20240174679A1, “HETEROAROYL AMIDES AS LRRK2 INHIBITORS, PHARMACEUTICAL COMPOSITIONS, AND USES THEREOF” (MERCK SHARP & DOHME LLC, priority 2021, published 2024).
